From ChEMBL document CHEMBL1201862, “PubChem BioAssay data set” (2004) come the findings set out here.

Molecules are shown by their SMILES.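 Dose response: 5 concentrations. Exposure: 48 h. Format: 96-well plates. Endpoint: linear interpolation; highest concentration if not reached. The concentration for 50% growth inhibition is given as GI50.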 The source made the active and inactive calls. Rule as the data show it: active = GI50 up to about 1.1 µM and inactive = higher. Some results are limits rather than exact numbers.

Common to all, as to assay: DTP human tumour cell line panel, 48 h
The subject of assay [1] is EKVX.
Assay [2] has as its system SF-539.
For assay [3], the system named is OVCAR-8.
The test system of assay [4] is NCI-H23.
Assay [5] has as its system SNB-75.
Assay [6] concerns SK-MEL-28.
Assay [7] concerns HOP-92.
Assay [8] has as its system HCT-116.
Assay [9] deals with SW-620.
For assay [10], the system named is ACHN.
In assay [11] the test system is DMS-114.
Assay [12] deals with SF-268.
For assay [13], the system named is NCI-H522.
Assay [14] concerns HOP-62.
For assay [15], the system named is HCT-15.
Assay [16] deals with SNB-19.
For assay [17], the system named is SN12C.
For assay [18], the system named is M14.

In general, GI50 refers to the concentration at which growth is held to half of that of the control. Regarding `O=C1/C(=C/c2cccc([N+](=O)[O-])c2)COc2ccc(Br)cc21`, the GI50 in assay [1] is > 100 µM (inactive); in assay [2], > 100 µM (inactive); in assay [3] it was > 100 µM (inactive); in [4] it was > 100 µM (inactive); in assay [5], 55.7 µM (inactive); in assay [6], > 100 µM (inactive). The GI50 was > 100 µM (inactive) in assay [7]; 32.6 µM (inactive) in [8]; 42.4 µM (inactive) in assay [9]; > 100 µM (inactive) in assay [10]; 65.9 µM (inactive) in assay [11]; > 100 µM (inactive) in assay [12]. The GI50 was 55 µM (inactive) in [13] and > 100 µM (inactive) in assay [14].
In the case of `C[C@]12CCC(=O)C=C1CC[C@@H]1[C@@H]2[C@@H](O)C[C@@]2(C)[C@H]1CC[C@]2(O)C(=O)COC(=O)CCC1CCCC1` [HYDROCORTISONE CYPIONATE], the GI50 in [1], in assay [2], in [3], in assay [4], in assay [5] and in assay [6] was > 100 µM (inactive) in each case. Besides, the GI50 was > 100 µM (inactive) in assay [7]; > 100 µM (inactive) in assay [8]; > 100 µM (inactive) in assay [9]; > 100 µM (inactive) in [10]; > 100 µM in [15]; > 100 µM (inactive) in assay [16]. The GI50 in [11] is > 100 µM (inactive); in [12], > 100 µM (inactive); in assay [13], > 100 µM (inactive); in assay [17], 0.693 µM (active).
As to `COc1ccccc1NC(=O)C1=C(C)NC(C)=C(C(=O)Nc2ccccc2OC)C1c1ccc(N(C)C)cc1`, the GI50 in assay [1] is 27.4 µM (inactive); in assay [2], 37.5 µM (inactive); in [3] it was 24 µM (inactive); in assay [4] it was 21.3 µM (inactive); in assay [5] it was 30.8 µM (inactive); in [6] it was 22.6 µM (inactive). In addition, the GI50 in assay [7] is 6.52 µM (inactive); in [8], 25.4 µM (inactive); in assay [9], 36.3 µM (inactive); in assay [10] it was 33 µM (inactive); in assay [18], 22.5 µM (inactive); in assay [16], 55.8 µM (inactive). The GI50 is 21.8 µM (inactive) in assay [11]; 24.5 µM (inactive) in assay [12]; 17.6 µM (inactive) in assay [13]; 22.3 µM (inactive) in assay [14]; 26.9 µM (inactive) in [17].
For `NC(=O)N/N=C/C(/C=N/NC(N)=O)[N+](=O)[O-]`, the GI50 in [1], in [2], in assay [4], in [5], in assay [6] and in assay [7] was > 100 µM (inactive) each time. For the same compound, the GI50 in assay [8], in assay [9], in [10], in assay [18], in assay [16] and in [11] was > 100 µM (inactive) each time. For the same compound, the GI50 in assay [12], in assay [13], in [14] and in [17] was > 100 µM (inactive) throughout.
Consider `CC(=O)OC1COC(N2C(=O)/C(=N\NC(N)=S)c3cc(Br)ccc32)C(OC(C)=O)C1OC(C)=O` (stereo not given), for which the GI50 in assay [1] is 56.1 µM (inactive); in [2], 43.5 µM (inactive); in [3], 49.1 µM (inactive); in assay [4], 67.9 µM (inactive); in [6], 25.4 µM (inactive); in assay [7] it was > 100 µM (inactive). Moreover, the GI50 in [8] was 27.2 µM (inactive); in assay [9], 77.8 µM (inactive); in assay [10], 60.3 µM (inactive); in assay [15] it was 61.9 µM; in assay [18] it was > 100 µM (inactive); in assay [16] it was > 100 µM (inactive). The GI50 in assay [11] is 19.9 µM (inactive); in assay [12], 38.5 µM (inactive); in assay [13], > 100 µM (inactive); in assay [14], 98.6 µM (inactive); in [17], > 100 µM (inactive).
